Test results taken from a melting point compilation (Tetko et al.; mined from patent text by program, amines drawn as free bases though some values may be those of a salt).

melting point	Structure (SMILES)
180 to 184 °C	CC(=O)OC1CC2(C)C(CCC2(Sc2ccccc2)Sc2ccccc2)C2CCC3=CC(=O)C=CC3(C)C12F (stereo not drawn)
225 to 226 °C	O=C(O)Cc1ccc(NC(=O)C(COc2cccc(Cl)c2)NS(=O)(=O)c2ccc(I)cc2)cc1 (racemic)
177 to 179 °C	O=C(O)c1ccc2c(=O)[nH]c(=O)n(CCCCN3CCC(OC(c4ccccc4)c4ccccc4)CC3)c2c1
101 to 103 °C	O=C(O)c1ccc(Sc2ccccc2)cc1
203 to 204 °C	CCOCc1nc2c(N)nc3ccccc3c2n1Cc1cc(-c2ccc(F)cc2)no1
108 to 109 °C	Cc1c(C)c(NCc2ccccc2)c2c(c1C)C(=O)C(C)(C)O2
167 to 170 °C	Nc1cc(C(=O)Nc2ccccc2)ccc1F
245 to 248 °C	Cc1cc(C(F)(C(F)(F)F)C(F)(F)F)cc(C)c1NC(=O)c1cc(F)c(C#N)c(NC(=O)c2ccccc2)c1F
175 to 177 °C	O=C(c1ccc(-c2ccccc2)cc1)N1Cc2cccnc2Nc2ccccc21
243 to 245 °C	CC(=O)Nc1nc(NC(C)=O)nc(-c2ccc(Oc3ccccc3)cc2)n1
200 to 202 °C	O=C(c1ccccc1O)c1ccc(O)c(Cl)c1Cl
77 to 78 °C	COc1cccc2c(CCOCc3ccc(-c4ccccc4)cc3)coc12
122 °C	CN1CCN(c2ccccc2OCc2cc(CCC(=O)O)c3c(c2)CC(NS(=O)(=O)c2ccc(Cl)cc2)CC3)CC1 (stereo not drawn)
153 to 155 °C	CC(C)(NC(=O)OCc1ccccc1)C(=O)Nc1ccc([N+](=O)[O-])cc1C(=O)c1ccccc1F
210 to 211 °C	CC(=O)c1ccc2c(c1)[C@@H](NC(=O)Nc1ccccc1)[C@H](O)C(C)(C)O2 (relative stereo)
287 to 289 °C	O=C(Oc1ccc(Cl)cn1)c1cc2cc([N+](=O)[O-])ccc2oc1=O
148 to 150 °C	CC1=CC(O)C(OC(=O)c2ccc([N+](=O)[O-])cc2)C(C)(C)CC1=O (stereo not drawn)
217 to 220 °C	O=C(Nc1ccc(C(=O)N2Cc3ccccc3Cc3ccccc32)cc1)c1cccnc1
86 to 88 °C	CC(C)(C(=O)O)c1ccc(CCNS(=O)(=O)c2ccccc2)cc1
229 to 230 °C	COC(=O)c1ccc(Cc2cccc3ccc(C(=O)O)cc23)c(OC)c1
108 to 114 °C	CC(C)(C)NC(=O)[C@@H]1CCCN1C(=O)[C@@H](O)[C@H](Cc1ccccc1)NC(=O)[C@H](CC(N)=O)NC(=O)COc1cccc(N)c1
204 to 206 °C	CCOC(=O)c1c(-c2ccc(F)cc2)c2ccccc2[nH]c1=O
162 °C	CC1=C(C(=O)OCCN(C)Cc2ccccc2)C(c2cccc([N+](=O)[O-])c2)c2c(N)nc(N)nc2N1 (stereo not drawn)
123 to 124 °C	COc1ccc(Cc2nc(-c3ccc(F)cc3)c(-c3ccc(S(C)(=O)=O)cc3)o2)cc1
105 to 106 °C	Cc1cc(S(=O)(=O)NCC(O)(CO)c2ccccc2)ccc1Cl (stereo not drawn)
160 to 162 °C	CN(OCC(=O)O)C(=S)NC(c1ccccc1)c1ccccc1
146 to 147 °C	COC(=O)c1cc(OCc2ccc(OCc3nc(-c4ccco4)oc3C)c(OC)c2)nn1-c1ccccc1
165 to 167 °C	FC(F)(F)c1ccc(NC(=S)Nc2ncccc2OCc2ccccc2)cc1
173 to 175 °C	COCc1c(-c2csc(C)n2)ncc2c1c1cc(OCc3ccccc3)ccc1n2S(=O)(=O)c1ccc(C)cc1
159 to 160 °C	O=C(NO)c1ccc(CNC(=O)c2[nH]c(-c3ccoc3)cc2-c2ccc(O)cc2)cc1

The remaining lines, values behind:

Structure (SMILES)	melting point
O=c1oc(-c2c(F)cccc2Cl)nn1-c1ccccc1C(F)(F)F	109 to 110 °C
O=C(NCC1CCN(CC2(C(=O)O)CCOCC2)CC1)N1C(=O)C2(CCCC2)c2ccccc21	146 °C
CC(=CC1=NCCC1)N(C)C1CCCCC1	152 to 153 °C
CCCc1cn(C)cc(-c2cccc(C(F)(F)F)c2)c1=S	145 to 148 °C
CC(C)n1nc(-c2c(OCC(=O)NC3CC3)nc(N)nc2-c2ccccc2)ccc1=O	87 to 92 °C
CC=Cc1cnn(C)c1S(=O)(=O)NC(=O)Nc1nc(OC)cc(OC)n1	154 to 156 °C
Cn1c(=O)c2c(ncn2CCCCCC#N)n(C)c1=O	86 to 88 °C
COCCCS(=O)(=O)NC(=O)/C=C/c1cc(OC(C)C)nn1Cc1ccc(C(F)(F)F)cc1Cl	138 to 139 °C
COC(=O)CCCCCCCCOC1OC(CO)C(O)C(OC2OC(CO)C(O)C(O)C2OC2OC(C)C(O)C(O)C2O)C1NC(C)=O (stereo not drawn)	195 °C
CCCCOCCOc1ccc(-c2ccc3c(c2)C=C(C(=O)Nc2ccc(SCc4nncn4CCC)c(C(F)(F)F)c2)CCN3CC(C)C)cc1	131 to 133 °C
CCOC(=O)Nc1ccc2c(c1)C(c1ccccc1Cl)S(=O)(=O)CCC(=O)N2 (stereo not drawn)	295 to 296 °C
O=C(CCN1CCN(c2cccc3[nH]ccc23)CC1)c1csc2ccccc12	83 to 85 °C
COc1ccc(C(=O)CCCCCN2CCC(CNC(=O)c3cc(Cl)c(N)cc3OC)CC2)cc1OC	102 to 105 °C
COc1ccc(CN2C(=O)C(N)C(=O)N(CC34CC5CC(CC(C5)C3)C4)c3ccccc32)cc1 (stereo not drawn)	223 to 225 °C
CC(C)(C)OC(=O)NC1COCCCC=CC2CC2(C(=O)NS(=O)(=O)C2CC2)NC(=O)C2CC(OC(=O)N3CCc4ccccc43)CN2C1=O (stereo not drawn)	128 to 130 °C
O=C(CCS)N[C@@H](Cc1ccc(O)c(O)c1)C(=O)O	89 to 91 °C
NS(=O)(=O)c1ccc(S(=O)(=O)CCCO)c(C(=O)O)c1	170 °C
CSc1ncc(C=O)c(NC2CC2)n1	69.5 to 70 °C
CCN(CC)CCN1C(=O)Nc2ncccc2C1c1ccccc1 (stereo not drawn)	160 to 162 °C
CC1(C)OCC(=O)Nc2ccc(-c3cc(F)cc(C#N)c3)cc21	238 to 239 °C
CCOCc1nc2c(N)nc3ccccc3c2n1CCC(=O)N1CCOCC1	187 to 189 °C

Structure (SMILES)	melting point
COc1cccc(OC(=O)NC2C(=O)N(CCC(C)C)c3cc(Cl)c(Cl)cc3N(c3ccccc3)C2=O)c1 (stereo not drawn)	139 to 140 °C
COc1cccc(-n2c3c(c(=O)c4cccnc42)CCO3)c1	194 to 196 °C
COC(=O)c1cc(OC)c(OS(=O)(=O)C(F)(F)F)cc1[N+](=O)[O-]	69 to 70 °C
CCOC(=O)c1cn(C2CC2)c2c(OC(F)F)c(Br)ccc2c1=O	253 °C
CC(C)(C)C(O)c1ccc(C2(c3ccccc3)OCCO2)cc1 (stereo not drawn)	90 to 93 °C
CCCCCOC1=C(c2ccccc2)C(CCC(=O)O)OC1=O (stereo not drawn)	86 to 87 °C
O=C(Nc1ccc(Cl)cn1)c1oc2ccc(C(=O)N3CCOCC3)cc2c1NC(=O)[C@H]1CC[C@H](N2CCCC2=O)CC1	253 to 255 °C
CC(=O)NC1CCC(N2CCNC2=O)CC1 (stereo not drawn)	211 to 230 °C
ON=c1cc(-c2cc3sccc3cn2)oc2ccc(OCCc3ccc(F)cc3)cc12	228 to 234 °C
CC(C)(C)OC(=O)N1CCN(c2cccc3cc[nH]c23)CC1	150 to 151 °C
COCCOc1c(C)cc(C#CC2(O)CN3CCC2CC3)cc1C (stereo not drawn)	120 °C
CCSc1c(O[C@@H]2CCC[C@H](N)C2)ccc2[nH]ncc12 (relative stereo)	110 °C
CCCc1nnc2n1-c1ccc(Cl)cc1C(c1ccccc1)=NC2	176 °C
CC1Nc2ccc(-c3ccc(C#N)n3C)cc2C(C)(C)O1 (stereo not drawn)	195 to 196 °C
CS(C)=Nc1cnc(Cl)cn1	119 to 120 °C
CC(=O)N[C@@H](C)COc1cc2oc(-c3ccc(OC[C@H]4CC4(F)F)c(F)c3)nc2cn1	181 °C
CCOC(=O)c1cc(=O)c2ccc3nc(C(=O)OC)cc(Cl)c3c2o1	209 °C
Cn1ncc(N(CCCCl)Cc2ccccc2)c(Cl)c1=O	92 to 93 °C
O=Cc1ccc2c3cccc4cccc(c5cccc1c52)c43	230 °C
CCOC(=O)C(C)C(NC(C)=O)C(C(C)=O)C(=O)OC (stereo not drawn)	93 to 96 °C
COc1ccc(NC(=O)CBr)c(C(=O)O)c1	172 to 173 °C

Structure (SMILES)	melting point
CC/C(=C\C=C\C(O)(C(F)(F)F)C(F)(F)F)c1cccc(CCc2ccc(CO)c(CO)c2)c1	104 °C
CCCc1c(OCCCCCOc2c(C(C)=O)ccc(OCCCC(=O)O)c2CCC)ccc(C(C)=O)c1O	61 to 66 °C
COc1ccc(-c2ccc(C(=O)NCCOc3ccc(CC(Oc4ccc(C(C)C)cc4)C(=O)O)cc3)cc2)cc1 (stereo not drawn)	159 to 160 °C
COc1cccc([C@H]2O[C@H](CC(=O)Nc3ccc4oc(C(=O)O)c(OC(C)C)c4c3)C(=O)N(CC(C)(C)CO)c3ccc(Cl)cc32)c1OC	174 to 175 °C
Oc1cccc2c(Cl)ccnc12	143 to 145 °C
CCCC(C)Oc1ccc(C(=O)O)cc1 (stereo not drawn)	67 to 68.8 °C
Nc1ncnc2c1c(Cl)cn2COC(O)CCO (stereo not drawn)	175 to 176 °C
O=c1oc2c(c(O)c1-c1ccc(F)cc1)CCCC2	272 °C
CCN(CC)CC#CCCC(=O)C(O)(c1ccccc1)C1CCCCC1 (stereo not drawn)	112 to 115 °C
COc1ccc(C#Cc2ccncc2)c2c1OC1(CCCC1)C2	128 to 131 °C
CCOP(=O)(/C=C/c1cn(-c2ccccc2)nc1OCc1ccc(OCc2nc(-c3ccccc3)cn2C)c(OC)c1)OCC	144 to 145 °C
Cc1cc(Cl)ccc1-c1cc(Cl)cc2c1NC(CN)CO2 (stereo not drawn)	102 °C
CS(=O)(=O)OCC1(c2ccccc2)CCCC1	55 to 60 °C
O=C(N[C@H]1CC[C@H](CCN2CCN(c3nccc4c3OCC4)CC2)CC1)c1ccc(N2CCOCC2)cc1	242 °C
CC1=C(OS(=O)(=O)c2ccc(C)cc2)C(=O)C(C)O1 (stereo not drawn)	70 to 72 °C
Nc1cc(Cl)cc(Cl)c1C(=O)NCc1ccc(F)cc1	89 to 94 °C
COc1ccc(CNc2nc(Cl)ncc2C(=O)c2cc(OC)c(OC)c(OC)c2)cc1Cl	165 °C
O=c1c2ccccc2n(CCCCl)c2ccc(Cl)cc12	141 °C
CC(=O)NN1CCC(c2ccc(-c3cccc(N)n3)cc2)CC1	224 to 227 °C
CC1CC(c2ccc(CCCCN)cc2)=NNC1=O (stereo not drawn)	118 to 120 °C
O=C(Cl)c1ccc(Cl)c(OCCn2cnnn2)c1Cl	69 to 73 °C
